Data: US20030139371A1, “Drug for combating sexual dysfunctions” (priority 2000, published 2003)

Columns and labels:
[1] = system: corpus cavernosum smooth muscle from male rabbits; assay: Relaxation of phenylephrine-precontracted corpus cavernosum smooth muscle in organ chambers, male rabbits; parameters: species or system rabbit; details: for relaxation of the corpus cavernosum smooth muscle in the presence of aspirin / relaxation of the corpus cavernosum smooth muscle: male rabbits, after phenylephrine precontraction; for relaxation of the corpus cavernosum smooth muscle in the presence of aspirin: purine 10^-3M combined with aspirin 10^-3M; for relaxation of the corpus cavernosum smooth muscle: purine alone at 10^-3M
[2] = system: isolated rabbit corpus cavernosum; assay: Isolated rabbit corpus cavernosum in organ chambers, sex not specified or both sexes; details: for potentiation of the relaxant effect of purine by the NSAID: NSAID in place of aspirin, combined with purine
Source text: The in vitro model we used was that of the isolated rabbit corpus cavernosum in organ chambers. […] In fact, the best correlations with the results found in humans have been found in the rabbit; see, e.g., Bush P. A., Aronson W. J., Buga G. M., Rajfer J., Ignarro L. J., J. Urol. 147(6); 1650-1655 (1992); Knispel H. H., Goessel C., Bechman R., Urol. Res. 20(4); 253-257 (1992); Holmquist F., Hedlund H., Andersson K. E., J. Physiol. (London) 449; 295-311 (1992); and Cellek S., Moncada S., Proc. Natl. Acad. Sci. USA 94(15); 8226-8231 (1997).
The relaxant action of purines was studied in this model either with purines alone or with an inhibitor of NO synthesis (N-omega-nitro-L-arginine, or L-NNA) so as to investigate whether the regulation by purines of the production of NO is a component of the relaxant effect of purines.
In a similar manner, we investigated whether the presence of an inhibitor of the synthesis of prostaglandins (cyclooxygenase inhibitor) modified the effects of purine. If the action of purine could be explained in part by an indirect effect via prostaglandins, we would expect to see a decrease in the effect of purine in the presence of the cyclooxygenase inhibitor.
This study was performed in vitro on corpus cavernosum smooth muscles from male and female rabbits. The technique is that of organ chambers.
The study was performed on male and female rabbits.

[3] = system: corpus cavernosum smooth muscle from female rabbits; assay: Relaxation of phenylephrine-precontracted corpus cavernosum smooth muscle in organ chambers, female rabbits; parameters: species or system rabbit; details: after phenylephrine precontraction; for relaxation of the corpus cavernosum in the presence of aspirin: purine 10^-3M in the presence of aspirin; for relaxation of the corpus cavernosum: purine alone at 10^-3M

Compound: CC(=O)Oc1ccccc1C(=O)O [aspirin, acetylsalicylic acid, reference compound]
- vasoactivity of the NSAID by itself on this model ([1]; aspirin alone): not vasoactive

Compound: O=C(O)c1ccccc1O [salicylic acid]
- potentiation of the relaxant effect of purine by the NSAID [2]: confirmed

Compound: COc1ccc2c(c1)c(CC(=O)O)c(C)n2C(=O)c1ccc(Cl)cc1 [indomethacin]
- potentiation of the relaxant effect of purine by the NSAID [2]: confirmed

Compound: Nc1ncnc2c1ncn2[C@@H]1O[C@H](COP(=O)(O)OP(=O)(O)OP(=O)(O)O)[C@@H](O)[C@H]1O [ATP, adenosine triphosphate]
- relaxation of the corpus cavernosum smooth muscle in the presence of aspirin [1]: 57%
- relaxation of the corpus cavernosum smooth muscle [1]: 35%
- relaxation of the corpus cavernosum in the presence of aspirin [3]: 50%
- relaxation of the corpus cavernosum [3]: 31%

Compound: Nc1ncnc2c1ncn2[C@@H]1O[C@H](COP(=O)(O)O)[C@@H](O)[C@H]1O [AMP]
- relaxation of the corpus cavernosum smooth muscle in the presence of aspirin [1]: 92%
- relaxation of the corpus cavernosum smooth muscle [1]: 70%
- relaxation of the corpus cavernosum in the presence of aspirin [3]: 36%
- relaxation of the corpus cavernosum [3]: 20%

Compound: Cc1cccc(Nc2ccccc2C(=O)O)c1C [mefenamic acid]
- potentiation of the relaxant effect of purine by the NSAID [2]: confirmed

Compound: NC(=NCCC[C@H](N)C(=O)O)N[N+](=O)[O-] [L-NNA, N-omega-nitro-L-arginine]
- decrease of the relaxant effect of purine in the presence of an inhibitor of NO synthesis ([2]; compared with purine alone): about 15%
